Assay results from US20260256792A1, “TREATMENT OF CHRONIC SPONTANEOUS URTICARIA BY ADMINISTERING (R)-2-[3-[4-AMINO-3-(2-FLUORO-4-PHENOXY-PHENYL)PYRAZOLO[3,4-D]PYRIMIDIN-1-YL]PIPERIDINE-1-CARBONYL]-4-METHYL-4-[4-(OXETAN-3-YL)PIPERAZIN-1-YL]PENT-2-ENENITRILE” (priority 2023, published 2026).

Tested on: moderate-to-severe chronic spontaneous urticaria (CSU)
Assay: Phase 2 CSU study: urticaria activity score over 7 days (UAS7)
Type: in vivo, human
Conditions: Omalizumab-Naïve
From the text: The study comprises a 12 week, randomized, double-blind, placebo-controlled, multi-center, dose-ranging efficacy and safety phase, followed by a 40 week open label extension (OLE) phase (see FIG. 1). The study consists of three phases and an optional OLE phase. […] Clinically, CSU is characterized by the spontaneous and recurrent appearance of pruritic hives. The proposed primary endpoints were the UAS7 at Week 12 in EU and EU reference countries and the ISS7 in the US. Regardless of where a participant was from, all assessments were the same. The UAS7 score is a composite score containing both the HSS7 and the ISS7. This allowed a global assessment of the two key components of urticaria: hives and itch. […] The UAS is a validated PRO measure. […] The daily UAS scores range from 0 to 6 point/day. […] Patients were to complete the UAS using the e-diary. […] The following secondary endpoints were to be analyzed using the same approach as for the primary endpoint: • Change from baseline in UAS7 at Week 4 • Change from baseline in UAS7 at Week 12 (for US and US reference countries) • Change from baseline in ISS7 at Week 12 (except US and US reference countries) • Change from baseline in HSS7 at Week 12 The following responder secondary endpoints were to be analyzed using the Cochran-Mantel-Haenszel test adjusted by region: • Proportion of participants with UAS7<6 at Week 12 • Proportion of participants with UAS7=0 at Week 12 Participants who received selected prohibited medications and/or rescue medications were to be considered as non-responders for time points after the medication usage. For other participants, all available data including those collected during the off-treatment period were to be used to determine the responder/non-responder status. Missing data were to be considered as non-responders.

[1] = Baseline Eosinophils (10^9/L) ≥0.3, 400 mg BID
[2] = Baseline Eosinophils (10^9/L) ≥0.3, 400 mg QPM
[3] = Baseline Eosinophils (10^9/L) ≥0.3, 400 mg TID
[4] = Baseline H1-antihistamines dose 1-fold, 400 mg BID
[5] = Baseline H1-antihistamines dose 1-fold, 400 mg QPM
[6] = Baseline H1-antihistamines dose 1-fold, 400 mg TID
[7] = Baseline H1-antihistamines dose 2 to 4-fold standard dose, 400 mg BID
[8] = Baseline H1-antihistamines dose 2 to 4-fold standard dose, 400 mg QPM
[9] = Baseline H1-antihistamines dose 2 to 4-fold standard dose, 400 mg TID
[10] = Baseline ISS7 score <13, 400 mg BID
[11] = Baseline ISS7 score <13, 400 mg QPM
[12] = Baseline ISS7 score <13, 400 mg TID
[13] = Baseline ISS7 score ≥13, 400 mg BID
[14] = Baseline ISS7 score ≥13, 400 mg QPM
[15] = Baseline ISS7 score ≥13, 400 mg TID
[16] = Baseline Total IgE (IU/mL) <100, 400 mg BID
[17] = Baseline Total IgE (IU/mL) <100, 400 mg QPM
[18] = Baseline Total IgE (IU/mL) <100, 400 mg TID
[19] = Baseline Total IgE (IU/mL) <300, 400 mg BID
[20] = Baseline Total IgE (IU/mL) <300, 400 mg QPM
[21] = Baseline Total IgE (IU/mL) <300, 400 mg TID
[22] = Baseline Total IgE (IU/mL) ≥100, 400 mg BID
[23] = Baseline Total IgE (IU/mL) ≥100, 400 mg QPM
[24] = Baseline Total IgE (IU/mL) ≥100, 400 mg TID

Question: What does the source list for `CC(C)(C=C(C#N)C(=O)N1CCC[C@@H](n2nc(-c3ccc(Oc4ccccc4)cc3F)c3c(N)ncnc32)C1)N1CCN(C2COC2)CC1` [rilzabrutinib, (R)-2-[3-[4-amino-3-(2-fluoro-4-phenoxy-phenyl)pyrazolo[3,4-d]pyrimidin-1-yl]piperidine-1-carbonyl]-4-methyl-4-[4-(oxetan-3-yl)piperazin-1-yl]pent-2-enenitrile]?
Answer: Change from Baseline in UAS7 at Week 12: Mean (SD) (Baseline Eosinophils (10^9/L) ≥0.165 (Median), 400 mg TID): −16.50 (9.30); Change from Baseline in UAS7 at Week 12: LS Mean Diff vs. placebo (95% CI) [1]: −3.40 (−16.66, 9.86); Change from Baseline in UAS7 at Week 12: Mean (SD) [1]: −13.11 (12.32); Change from Baseline in UAS7 at Week 12: LS Mean (SE) [2]: −9.66 (4.84); Change from Baseline in UAS7 at Week 12: LS Mean Diff vs. placebo (95% CI) [2]: −2.00 (−16.22, 12.21); Change from Baseline in UAS7 at Week 12: Mean (SD) [2]: −9.69 (12.55); Change from Baseline in UAS7 at Week 12: LS Mean (SE) [3]: −13.16 (4.09); Change from Baseline in UAS7 at Week 12: LS Mean Diff vs. placebo (95% CI) [3]: −5.51 (−18.58, 7.57); Change from Baseline in UAS7 at Week 12: Mean (SD) [3]: −14.65 (7.48); Change from Baseline in UAS7 at Week 12: LS Mean (SE) [4]: −15.75 (3.11); Change from Baseline in UAS7 at Week 12: LS Mean Diff vs. placebo (95% CI) [4]: −3.48 (−11.69, 4.73); Change from Baseline in UAS7 at Week 12: Mean (SD) [4]: −18.22 (14.88); Change from Baseline in UAS7 at Week 12: LS Mean (SE) [5]: −7.64 (2.73); Change from Baseline in UAS7 at Week 12: LS Mean Diff vs. placebo (95% CI) [5]: 4.64 (−2.96, 12.23); Change from Baseline in UAS7 at Week 12: Mean (SD) [5]: −8.61 (9.50); Change from Baseline in UAS7 at Week 12: LS Mean (SE) [6]: −14.92 (2.59); Change from Baseline in UAS7 at Week 12: LS Mean Diff vs. placebo (95% CI) [6]: −2.65 (−10.05, 4.76); Change from Baseline in UAS7 at Week 12: LS Mean (SE) [7]: −12.98 (2.55); Change from Baseline in UAS7 at Week 12: LS Mean Diff vs. placebo (95% CI) [7]: −6.42 (−13.94, 1.10); Change from Baseline in UAS7 at Week 12: LS Mean (SE) [8]: −10.93 (2.77); Change from Baseline in UAS7 at Week 12: LS Mean Diff vs. placebo (95% CI) [8]: −4.37 (−12.30, 3.56); Change from Baseline in UAS7 at Week 12: Mean (SD) [8]: −12.81 (9.00); Change from Baseline in UAS7 at Week 12: LS Mean (SE) [9]: −20.96 (3.15); Change from Baseline in UAS7 at Week 12: LS Mean Diff vs. placebo (95% CI) [9]: −14.41 (−22.75, −6.07); Change from Baseline in UAS7 at Week 12: Mean (SD) [9]: −24.73 (10.10); Change from Baseline in UAS7 at Week 12: LS Mean (SE) [10]: −9.30 (4.02); Change from Baseline in UAS7 at Week 12: LS Mean Diff vs. placebo (95% CI) [10]: −4.39 (−14.52, 5.74); Change from Baseline in UAS7 at Week 12: Mean (SD) [10]: −10.78 (8.33); Change from Baseline in UAS7 at Week 12: LS Mean (SE) [11]: −3.27 (5.21); Change from Baseline in UAS7 at Week 12: LS Mean Diff vs. placebo (95% CI) [11]: 1.64 (−10.30, 13.58); Change from Baseline in UAS7 at Week 12: Mean (SD) [11]: −5.83 (3.06); Change from Baseline in UAS7 at Week 12: LS Mean (SE) [12]: 9.24 (6.48); Change from Baseline in UAS7 at Week 12: LS Mean Diff vs. placebo (95% CI) [12]: −4.33 (−18.30, 9.63); Change from Baseline in UAS7 at Week 12: Mean (SD) [12]: −10.75 (6.01); Change from Baseline in UAS7 at Week 12: LS Mean (SE) [13]: −15.07 (2.33); Change from Baseline in UAS7 at Week 12: LS Mean Diff vs. placebo (95% CI) [13]: −4.32 (−10.91, 2.27); Change from Baseline in UAS7 at Week 12: Mean (SD) [13]: −15.60 (12.97); Change from Baseline in UAS7 at Week 12: LS Mean Diff vs. placebo (95% CI) [14]: 0.28 (−6.08, 6.64); Change from Baseline in UAS7 at Week 12: Mean (SD) [14]: −10.91 (9.59); Change from Baseline in UAS7 at Week 12: LS Mean (SE) [15]: −18.70 (2.15); Change from Baseline in UAS7 at Week 12: LS Mean Diff vs. placebo (95% CI) [15]: −7.95 (−14.32, −1.57); Change from Baseline in UAS7 at Week 12: LS Mean (SE) [16]: −15.72 (3.24); Change from Baseline in UAS7 at Week 12: LS Mean Diff vs. placebo (95% CI) [16]: −8.43 (−17.18, 0.33); Change from Baseline in UAS7 at Week 12: Mean (SD) [16]: −16.26 (11.38); Change from Baseline in UAS7 at Week 12: LS Mean (SE) [17]: 8.49 (3.25); Change from Baseline in UAS7 at Week 12: LS Mean Diff vs. placebo (95% CI) [17]: −1.19 (−10.05, 7.67); Change from Baseline in UAS7 at Week 12: LS Mean (SE) [18]: −17.40 (3.01); Change from Baseline in UAS7 at Week 12: LS Mean Diff vs. placebo (95% CI) [18]: −10.10 (−18.54, −1.65); Change from Baseline in UAS7 at Week 12: Mean (SD) [18]: −21.03 (13.37); Change from Baseline in UAS7 at Week 12: LS Mean (SE) [19]: −14.78 (2.46); Change from Baseline in UAS7 at Week 12: LS Mean Diff vs. placebo (95% CI) [19]: −6.72 (−13.41, −0.03); Change from Baseline in UAS7 at Week 12: Mean (SD) [19]: 15.35 (12.23); Change from Baseline in UAS7 at Week 12: LS Mean (SE) [20]: −9.07 (2.38); Change from Baseline in UAS7 at Week 12: LS Mean Diff vs. placebo (95% CI) [20]: −1.01 (−7.60, 5.59); Change from Baseline in UAS7 at Week 12: Mean (SD) [20]: −10.61 (9.62); Change from Baseline in UAS7 at Week 12: LS Mean (SE) [21]: −18.19 (2.47); Change from Baseline in UAS7 at Week 12: LS Mean Diff vs. placebo (95% CI) [21]: −10.13 (−16.83, −3.44); Change from Baseline in UAS7 at Week 12: Mean (SD) [21]: −20.66 (12.39); Change from Baseline in UAS7 at Week 12: LS Mean (SE) [22]: −13.17 (2.55); Change from Baseline in UAS7 at Week 12: LS Mean Diff vs. placebo (95% CI) [22]: −1.67 (−8.84, 5.51); Change from Baseline in UAS7 at Week 12: Mean (SD) [22]: −13.19 (12.80); Change from Baseline in UAS7 at Week 12: LS Mean (SE) [23]: −8.97 (2.49); Change from Baseline in UAS7 at Week 12: LS Mean Diff vs. placebo (95% CI) [23]: 2.53 (−4.52, 9.59); Change from Baseline in UAS7 at Week 12: Mean (SD) [23]: −9.90 (9.51); Change from Baseline in UAS7 at Week 12: LS Mean (SE) [24]: −17.08 (2.69); Change from Baseline in UAS7 at Week 12: LS Mean Diff vs. placebo (95% CI) [24]: −5.57 (−12.83, 1.69)
